Results reported in patent US8481522B2, “Platinum-N-heterocyclic carbene derivatives, preparation thereof and therapeutic use thereof” (Sanofi, priority 2008, dated 2013).
Values joined by “and” are separate entries in the source; they are usually repeats but may differ in a detail not shown here. Identical values can stand only once.

Legend:
Assay type in all cases: cell-based
[1] = test system: CCRF-CEM cells; experiment: Cytotoxicity, non-adherent CCRF-CEM cells, CellTiter-Glo luminescent cell viability; conditions: CCRF-CEM human T leukaemia, 96 h incubation
Protocol: CCRF-CEM is a human T leukaemia (Cancer 1965, 18: 522-529). Oxaliplatin induces bifunctional lesions such as inter- and intra-DNA strand adducts on these CCRF-CEM cells (Mol Pharmacol 2000, 58: 920-927). […] This deficiency makes these cells particularly […] to alkylating agents and to platinum compounds.
For the non-adherent CCRF-CEM cells, the cell viability is measured by the luminescence test CellTiter-Glo® Luminescent Cell Viability Assay (Promega, Madison, Wis., USA). When it is added to the cells, the reagent produces a luminescence in the presence of the ATP of the living cells. The results are evaluated on a suitable reader (Envision, Perkin-Elmer Life Sciences, Boston, Mass., USA).
The CCRF-CEM cells are cultured in RPMI1640 medium containing 10% foetal calf serum, 2 mM L-glutamine, 100 units/ml of penicillin and […] of streptomycin, at 37° C. in a 95% air/5% CO2 atmosphere. The cells, at the exponential growth phase, are introduced into the wells of a 96-well plate at the density of 5×10^3 cells per well in an opaque plate (Greiner), in a volume of 150 μl. After incubating for 4 h at 37° C. in a 95% air/5% CO2 atmosphere, the compounds (concentrated 20-fold) are added in a volume of 8 μl. The compounds are prepared beforehand as a stock solution at the concentration of 10 mM in DMSO. A serial dilution is performed before the compounds are brought into contact with the cells. After incubating for 96 h at 37° C., 100 μl of agents (CellTiter-Glo) are added. After lysing the cells, the release of ATP is evaluated on the Envision reader.
(§1) The IC50 values are evaluated from curves presenting the percentage viability as a function of the concentration of the test compound, using the Biostat speed software. The IC50 is defined as the concentration of the compound which inhibits 50% of the cell proliferation or 50% of the cell viability.

[2] = test system: H460; experiment: Cytotoxicity, adherent cells, 14C-thymidine incorporation (cell proliferation); conditions: NCI-H460 human non-small cell lung cancer, 96 h treatment
Protocol: NCI-H460 is a human non-small cell lung cancer which has a mutation in the K-ras gene. This cell is sensitive to platinum compounds. In this cell line, cisplatin forms more adducts than oxaliplatin at the same concentration and yet the percentage repair is higher for oxaliplatin (DNA Repair 2006, 5: 219-225).
(§2) Cell proliferation is evaluated by the incorporation of ^14C-thymidine into the DNA of the cells. A549, CH1, CH1/DDP and H460 are cultured in Dulbecco's modified Eagle's medium (DMEM), SK-OV-3 in Mc-Coy medium, A2780 and A2780/DDP in RPMI1640 medium. All the media contain 10% foetal calf serum, 2 mM L-glutamine, 100 units/ml of penicillin and […] of streptomycin. The incubation is performed at 37° C. in a 95% air/5% CO2 atmosphere.
(§3) The cells, at the exponential growth phase, are introduced into the wells of a Cytostar 96-well plate, containing a scintillation fluid (Cytostar-T scintillating microplate, GE Healthcare Bio-Sciences AB, Uppsala, Sweden), at the density of 5×10^3 to 10^4 cells per well, in an amount of 180 μl per well. After incubating for 4 hours, the test compounds are added. The compounds are prepared beforehand as a stock solution at the concentration of 10 mM in DMSO. A serial dilution is performed before the compounds are brought into contact with the cells in a volume of 10 μl. After incubating for 72 hours at 37° C. in an atmosphere of 95% air/5% CO2, 0.1 μCi/well of ^14C-thymidine is added. 24 h later (total 96 h of treatment), the incorporation of ^14C-thymidine is recorded on a suitable scintillation counter (MicroBeta radioactivity counting, Perkin-Elmer Life Sciences, Boston, Mass., USA). The mean values obtained in the experimental groups are divided by the mean values obtained in the control groups in order to obtain percentages relative to the controls.
as §1

[3] = test system: A2780/DDP; experiment: as above; conditions: A2780/DDP cisplatin-resistant human ovarian cancer, 96 h treatment
Text: (§4) A2780 and A2780/DDP are human ovarian cancer lines. […] The resistance of the A2780/DDP line is of the acquired type and involves various mechanisms: —reduction in the capacity for internalization of cisplatin, —replicative bypass (this is defined as the possibility for a replicative complex to synthesize DNA beyond the site of damage) (Cancer Res 1994; 54:3500-3505), —active detoxification by glutathione (Exp Oncol 2005; 27:191-195), —low activity of Caspase-3, enzymes involved in the process of programmed cell death (J Cancer Res Clin Oncol 2004; 130:423-428) and finally high nuclear efflux of platinum compounds (Oncol Rep 2004; 12:1365-1370).
as §2, §3, §1

[4] = test system: A2780; experiment: as above; conditions: A2780 human ovarian cancer, 96 h treatment
Text: as §4, §2, §3, §1

[5] = test system: CH1/DDP; experiment: as above; conditions: CH1/DDP cisplatin-resistant human ovarian cancer, 96 h treatment
Text: (§5) CH1 and CH1 CisR are human ovarian cancers which are sensitive and resistant to cisplatin, respectively. The relative sensitivity of the CH1 cell may be at least partially attributed to a deficiency of a gene involved in repair processes and which is capable of removing the adducts (Chemico-Biological Interactions, 1999; 123:11-29). The CH1cisR cell is resistant to cisplatin through a poorly known mechanism of DNA repair, or increase in the tolerance of the cell to the damage caused by cisplatin to the DNA of this cell (Mol Pharmacol 2003; 63:933-944, Cancer Res 52: 3857-3864).
as §2, §3, §1

[6] = test system: CH1; experiment: as above; conditions: CH1 human ovarian cancer, 96 h treatment
Text: as §5, §2, §3, §1

[7] = test system: SK-OV-3; experiment: as above; conditions: SK-OV-3 human ovarian cancer, 96 h treatment, read-out: SKOV3 IC50
Protocol: SK-OV-3 is a human ovarian cancer. […] This cell has an intrinsic mechanism of resistance to cisplatin which is linked to high levels of glutathione (Br J Cancer 1998; 78:175-180). This cell line is commonly used to explore the effects of high levels of glutathione on the resistance to platinum compounds (Br J Cancer 1996, 74: 380-386).
as §2, §3, §1

| Compound | IC50 [1] | IC50 [2] | IC50 [3] | IC50 [4] | IC50 [5] | IC50 [6] | IC50 [7] |
| --- | --- | --- | --- | --- | --- | --- | --- |
| Cn1[c](=[Pt-]([I])([I])[NH2+]C2CC3CCC2C3)n(C)c2ccccc21 (racemic) [Example 7, trans-diiodo(N-exo(+/−)bicyclo[2.2.1]heptylamine)(1,3-dimethyl-benzimidazol-2-ylidene)platinum(II)] | 1300 nM | 1900 nM | 1800 nM | 400 nM | 2400 nM | 2500 nM | 7000 nM |
| Cn1[c](=[Pt-]([I])([I])[NH2+]C2CC3CCC2C3)n(C)c2ccccc21 (single isomer, unassigned) [Example 16, trans-diiodo(N-exo(+)bicyclo[2.2.1]heptylamine)(1,3-di-methylbenzimidazol-2-ylidene)platinum(II)] | 1400 nM | 4100 nM | 2700 nM | 1100 nM |  |  | 4100 nM |
| Cn1[c](=[Pt-]([I])([I])[NH2+]C2CC3CCC2C3)n(C)c2ccccc21 (single isomer, unassigned) [Example 17, trans-diiodo(N-exo(−)bicyclo[2.2.1]heptylamine)(1,3-dimethylbenzimidazol-2-ylidene)platinum(II)] | 1800 nM | 1100 nM | 2200 nM | 1100 nM |  |  | 5000 nM |
| N.N.[Cl][Pt][Cl] [Cisplatin, cisplatin, reference compound] | 3000 nM | 2400 nM | > 10000 nM | 9000 nM | > 10000 nM | 8000 nM | 6100 nM |
| Cn1ccn(CC2CCCCC2)[c]1=[Pt-]([I])([I])[NH2+]C1CCCCC1 [Example 3, trans-diiodo(N-cyclohexylamine)(1-methyl-3-cyclohexylmethylimidazol-2-ylidene)platinum(II)] | 2000 nM | 3800 nM | 1200 nM | 1000 nM | 2000 nM | 2300 nM | 5300 nM |
| Cn1ccn(Cc2ccccc2)[c]1=[Pt-]([I])([I])[NH2+]C1CCCCC1 [Example 5, trans-diiodo(N-cyclohexylamine)(1-methyl-3-benzylimidazol-2-ylidene)platinum(II)] | 1200 nM and 1400 nM | 1700 nM and 2700 nM | 1800 nM | 900 nM | 2400 nM | 2400 nM | 6500 nM |
| Cn1c(=O)c2c(n(C)c1=O)n(C)[c](=[Pt-]([I])([I])[NH2+]C1CCCCC1)n2C [Example 9, trans-diiodo(N-cyclohexylamine)(1,3,7,9-tetramethylxanthin-8-ylidene)platinum(II)] | 2700 nM | 1600 nM | 1400 nM | 1800 nM | 2100 nM | 2200 nM | > 10000 nM |
| COc1ccc(Cn2ccn(C)[c]2=[Pt]([I])([I])[NH]C2CCCCC2)cc1 [Example 10, trans-diiodo(N-cyclohexylamine)[1-methyl-3-(4-methoxybenzyl)-imidazol-2-ylidene]platinum(II)] | 1600 nM | 3800 nM | 2300 nM | 1600 nM |  |  | 5200 nM |
| Cn1ccn(Cc2ccc(C(F)(F)F)cc2)[c]1=[Pt-]([I])([I])[NH2+]C1CCCCC1 [Example 11, trans-diiodo(N-cyclohexylamine)[1-methyl-3-(4-trifluoromethylbenzyl)imidazol-2-ylidene]platinum(II)] | 1000 nM | 1500 nM | 1100 nM | 800 nM |  |  | 2600 nM |
| [I][Pt-2]([I])([NH2+]C1CCCCC1)[c]1n(Cc2ccccc2)cc[n+]1Cc1ccccc1 [Example 12, trans-diiodo(N-cyclohexylamine)[1,3-dibenzylimidazol-2-ylidene]-platinum(II)] | 1300 nM | 3400 nM | 1200 nM | 700 nM |  |  | 2800 nM |
| Cn1ccn(Cc2ccc(C(F)(F)F)cc2)[c]1=[Pt-]([Br])([Br])[NH2+]C1CCCCC1 [Example 38, trans-dibromo(N-cyclohexylamine)[1-methyl-3-(4-trifluoromethyl-benzyl)imidazol-2-ylidene]platinum(II)] | 2200 nM | 3000 nM |  |  |  |  |  |
| O=C1[O][Pt]2([NH][C@@H]3CCCC[C@H]3[NH]2)[O]C1=O [Oxaliplatin, oxaliplatin, reference compound] | 900 nM | 4000 nM | 17300 nM | 3900 nM | 6200 nM | 4200 nM | > 10000 nM |
| CC(C)(C)[n+]1ccn(Cc2ccccc2)[c]1[Pt-2]([I])([I])[n+]1ccccc1 [Reference product, trans-diiodo(pyridine)(1-benzyl-3-tert-butylimidazol-2-ylidene)platinum(II), reference compound] | 3900 nM | 4400 nM |  |  |  |  |  |
| trans-diiodo(N-cyclohexylamine)(1-methyl-3-phenyl-1,2,4-triazol-5-ylidene)platinum(II) [Example 19] | 1000 nM | 2300 nM |  |  |  |  |  |
| trans-diiodo(N-cyclohexylamine)[3-benzyl-1-methyl-4-phenylimidazol-2-ylidene]platinum(II) [Example 21] | 900 nM | 1900 nM |  |  |  |  |  |
